Patent publication US20230416210A1, “METHODS OF MAKING A PPAR-DELTA AGONIST” (Reneo Pharmaceuticals, Inc., priority 2020, published 2023)

Key:
PPARδ = biological target: T1, PPARδ (Mus musculus, UniProt P35396); settings: mice, cited from earlier work
T1 construct: host or cells: mice (skeletal muscle), in vivo
T1 sequence (P35396 1-440): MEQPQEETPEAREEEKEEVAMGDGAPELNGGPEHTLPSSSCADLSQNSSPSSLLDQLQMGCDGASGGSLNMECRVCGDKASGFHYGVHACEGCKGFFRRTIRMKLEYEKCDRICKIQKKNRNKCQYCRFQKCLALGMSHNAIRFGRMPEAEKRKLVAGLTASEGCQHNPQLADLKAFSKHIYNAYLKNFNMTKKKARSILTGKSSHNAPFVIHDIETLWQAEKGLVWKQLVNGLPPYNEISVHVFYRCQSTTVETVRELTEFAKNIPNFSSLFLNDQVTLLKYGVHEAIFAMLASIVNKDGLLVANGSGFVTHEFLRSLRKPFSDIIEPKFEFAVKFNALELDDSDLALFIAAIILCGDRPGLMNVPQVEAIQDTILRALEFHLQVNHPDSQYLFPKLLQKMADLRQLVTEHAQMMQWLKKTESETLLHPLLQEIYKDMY

RXR = test: Activation of human cells expressing nuclear receptors; assay type: cell-based
[1] = Clinical studies, safety and tolerability; assay type: in vivo, human
LXRβ = biological target: T2, LXRβ (Homo sapiens, UniProt P55055); test: Activation of human cells expressing nuclear receptors; assay type: cell-based
T2 sequence (P55055 1-460): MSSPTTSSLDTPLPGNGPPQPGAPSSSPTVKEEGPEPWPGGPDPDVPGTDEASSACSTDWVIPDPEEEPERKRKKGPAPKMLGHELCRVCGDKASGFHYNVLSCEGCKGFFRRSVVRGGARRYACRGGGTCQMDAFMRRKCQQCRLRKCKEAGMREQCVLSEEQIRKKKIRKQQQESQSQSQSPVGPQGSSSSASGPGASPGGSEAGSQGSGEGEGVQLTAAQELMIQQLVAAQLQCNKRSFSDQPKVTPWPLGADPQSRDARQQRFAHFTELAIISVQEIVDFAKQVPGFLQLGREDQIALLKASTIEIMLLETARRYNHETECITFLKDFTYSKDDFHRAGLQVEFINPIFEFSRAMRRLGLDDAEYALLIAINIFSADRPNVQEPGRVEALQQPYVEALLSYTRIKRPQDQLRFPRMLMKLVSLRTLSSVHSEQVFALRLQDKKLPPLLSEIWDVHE

LXRα = biological target: T3, LXRα (Homo sapiens, UniProt Q13133); test: as above; assay type: cell-based
T3 sequence (Q13133 1-447): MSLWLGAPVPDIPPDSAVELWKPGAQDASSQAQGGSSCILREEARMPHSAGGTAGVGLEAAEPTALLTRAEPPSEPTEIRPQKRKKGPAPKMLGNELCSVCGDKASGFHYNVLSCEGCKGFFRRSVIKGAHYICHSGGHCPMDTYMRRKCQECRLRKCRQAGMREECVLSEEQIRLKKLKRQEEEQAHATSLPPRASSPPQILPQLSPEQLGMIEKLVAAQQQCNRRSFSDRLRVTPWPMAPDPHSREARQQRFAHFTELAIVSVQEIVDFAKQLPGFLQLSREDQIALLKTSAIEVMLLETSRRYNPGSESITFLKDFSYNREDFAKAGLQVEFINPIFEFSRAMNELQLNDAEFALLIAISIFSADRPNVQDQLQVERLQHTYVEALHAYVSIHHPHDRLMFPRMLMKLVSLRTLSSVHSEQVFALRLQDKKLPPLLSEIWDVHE

PPARα = biological target: T4, PPARα (Homo sapiens, UniProt Q07869); test: PPAR agonist activity in human cell lines expressing PPAR isotypes; assay type: cell-based
T4 sequence (Q07869 1-468): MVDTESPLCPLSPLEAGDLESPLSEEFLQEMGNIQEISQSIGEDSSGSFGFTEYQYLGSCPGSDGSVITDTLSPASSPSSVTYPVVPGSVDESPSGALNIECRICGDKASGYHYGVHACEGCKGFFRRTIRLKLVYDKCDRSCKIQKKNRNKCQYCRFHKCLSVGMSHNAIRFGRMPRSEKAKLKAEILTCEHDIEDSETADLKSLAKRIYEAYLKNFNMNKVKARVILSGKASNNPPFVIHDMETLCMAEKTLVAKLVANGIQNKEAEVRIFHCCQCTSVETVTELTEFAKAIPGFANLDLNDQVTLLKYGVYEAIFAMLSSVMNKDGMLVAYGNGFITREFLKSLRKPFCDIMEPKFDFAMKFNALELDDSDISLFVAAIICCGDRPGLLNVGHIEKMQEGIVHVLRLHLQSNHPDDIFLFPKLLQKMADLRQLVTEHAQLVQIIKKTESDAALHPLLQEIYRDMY
Protocol: (§1) Compound I is a PPARδ agonist that is useful in the methods of treatment described herein. In human cell lines expressing all three peroxisome proliferator-activated receptor (PPAR) isotypes, Compound I is a potent (EC50<100 nM) and selective human PPARδ agonist, with minor activity on PPARα (EC50>10 μM) and PPARγ (EC50>10 μM).

human PPARδ = biological target: T5, human PPARδ (Homo sapiens, UniProt Q03181); test: as above; assay type: cell-based
T5 sequence (Q03181 1-441): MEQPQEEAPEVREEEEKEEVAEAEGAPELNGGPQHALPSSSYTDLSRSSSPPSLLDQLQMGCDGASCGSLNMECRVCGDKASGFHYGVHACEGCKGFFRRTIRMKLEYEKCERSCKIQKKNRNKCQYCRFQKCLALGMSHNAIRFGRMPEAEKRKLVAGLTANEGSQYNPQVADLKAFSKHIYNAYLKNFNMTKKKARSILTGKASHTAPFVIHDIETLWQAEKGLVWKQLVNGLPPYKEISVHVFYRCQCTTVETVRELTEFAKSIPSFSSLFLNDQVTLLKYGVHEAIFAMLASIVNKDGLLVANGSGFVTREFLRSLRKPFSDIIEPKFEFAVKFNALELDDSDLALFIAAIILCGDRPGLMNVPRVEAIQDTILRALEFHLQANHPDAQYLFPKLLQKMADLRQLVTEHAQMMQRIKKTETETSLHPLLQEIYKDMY
Protocol: as §1

PPARγ = biological target: T6, PPARγ (Homo sapiens, UniProt P37231); test: as above; assay type: cell-based
T6 sequence (P37231 1-505): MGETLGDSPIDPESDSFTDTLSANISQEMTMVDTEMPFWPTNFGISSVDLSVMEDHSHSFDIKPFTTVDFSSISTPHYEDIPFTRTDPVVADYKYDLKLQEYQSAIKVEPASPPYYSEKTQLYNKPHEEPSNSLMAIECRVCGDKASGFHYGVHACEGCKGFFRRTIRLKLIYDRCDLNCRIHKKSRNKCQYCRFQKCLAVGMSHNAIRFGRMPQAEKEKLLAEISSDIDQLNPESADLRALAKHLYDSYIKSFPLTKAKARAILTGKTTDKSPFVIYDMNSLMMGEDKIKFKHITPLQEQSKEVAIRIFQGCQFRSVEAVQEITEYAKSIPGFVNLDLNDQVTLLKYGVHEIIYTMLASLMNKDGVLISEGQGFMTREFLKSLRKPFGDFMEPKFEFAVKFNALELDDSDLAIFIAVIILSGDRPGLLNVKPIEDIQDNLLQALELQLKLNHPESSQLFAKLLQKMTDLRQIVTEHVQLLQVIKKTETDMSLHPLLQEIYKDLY
Protocol: as §1

FXR = biological target: T7, FXR (Homo sapiens, UniProt Q96RI1); test: Activation of human cells expressing nuclear receptors; assay type: cell-based
T7 sequence (Q96RI1 1-486): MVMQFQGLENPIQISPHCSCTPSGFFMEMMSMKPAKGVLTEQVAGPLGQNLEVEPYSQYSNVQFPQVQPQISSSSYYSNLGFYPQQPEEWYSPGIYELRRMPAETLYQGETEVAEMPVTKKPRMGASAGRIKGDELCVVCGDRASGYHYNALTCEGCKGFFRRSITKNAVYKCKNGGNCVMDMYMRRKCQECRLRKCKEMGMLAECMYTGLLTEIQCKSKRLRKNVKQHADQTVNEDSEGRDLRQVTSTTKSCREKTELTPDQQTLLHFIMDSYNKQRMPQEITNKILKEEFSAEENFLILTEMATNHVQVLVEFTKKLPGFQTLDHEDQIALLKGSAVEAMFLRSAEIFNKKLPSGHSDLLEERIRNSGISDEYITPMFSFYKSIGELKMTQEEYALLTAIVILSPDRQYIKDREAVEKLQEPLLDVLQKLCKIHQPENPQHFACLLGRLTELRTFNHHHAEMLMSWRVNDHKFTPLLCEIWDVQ

[2] = test system: PPARδ regulated genes (CPT1b, PGC-1α); test: In vivo expression of PPARδ regulated genes in mice muscle
[3] = test system: Angiopoietin-like 4 (ANGPTL4); test: In vivo expression of PPAR regulated target gene in rat muscle
[4] = in combination with exercise, 4 weeks
[5] = human cell lines expressing all three PPAR isotypes

Structure (SMILES) | energy substrate usage (PPARδ; 8 weeks) | muscle fibers, mitochondrial biogenesis (PPARδ; [4]) | physical performance (PPARδ; [4]) | activation of human cells expressing RXR (RXR) | incidence of adverse events (AEs) versus placebo [1] | serious adverse events (SAEs) [1] | safety and tolerability ([1]; Compound I or a pharmaceutically acceptable salt, solvate or hydrate) | activation of human cells expressing LXRβ (LXRβ) | activation of human cells expressing LXRα (LXRα) | selectivity for PPARδ over PPARα (PPARα) | type of agonism on PPARα (PPARα) | EC50 (PPARα; [5]) | type of agonism on PPARδ (human PPARδ) | EC50 (human PPARδ; [5]) | selectivity for PPARδ over PPARγ (PPARγ) | type of agonism on PPARγ (PPARγ) | EC50 (PPARγ; [5]) | activation of human cells expressing FXR (FXR) | expression of PPARδ regulated genes CPT1b (beta-oxidation of long chain fatty acids) and PGC-1α (mitochondrial biogenesis) [2] | expression of ANGPTL4 [3]
Cc1cc(SCc2sc(-c3ccc(C(F)(F)F)cc3)nc2C)ccc1OCC(=O)O [GW1516] | clear shift in energy substrate usage from glucose to fatty acid oxidation | synergistically induced fatigue-resistant oxidative muscle fibers and mitochondrial biogenesis | enhanced physical performance | – | – | – | – | – | – | – | – | – | – | – | – | – | – | – | – | –
Cc1cc(OC/C=C(/c2ccc(F)cc2)c2ccc(C#CCN3CCOCC3)cc2)ccc1OCC(=O)O [Compound I, (E)-2-(4-((3-(4-fluorophenyl)-3-(4-(3-morpholinoprop-1-yn-1-yl)phenyl)allyl)oxy)-2-methylphenoxy)acetic acid] | – | – | – | did not result in activation | similar | No serious adverse events (SAEs) were reported | safe and well tolerated | did not result in activation | did not result in activation | 100 fold | only partial agonist activity | > 10 µM | full PPARδ agonist | < 0.1 µM | 400 fold | only partial agonist activity | > 10 µM | did not result in activation | altered the expression patterns | increased the expression
